64 compounds from PubChem BioAssay AID1626 (SRMLSC, 2009) can be followed below.

One may read the IC90 as the concentration needed for an effect of 90%. Lower therefore signals an effect from little substance. As usually defined, the CC50 is the concentration giving 50% cytotoxicity. Broadly, the pIC50 is the negative decadic logarithm of the IC50, by convention in mol/L.

pIC50: −log10 of the molar value.

The test deals with M. tuberculosis H37Rv growth inhibition. The experiment in a line: M. tuberculosis H37Rv growth inhibitors, H37Rv strain (AID 1626). Conditions: for IC90: measured here: IC90 against H37Rv; for CC50: measured here: Vero cell cytotoxicity.

In turn, `CCOc1ccc(/C=C/C(=O)c2ccccc2)cc1OC` displayed a 90% effect concentration (IC90) of more than 100 µM and a CC50 of more than 40 µM.

Consider `O=C(Nc1cccc(NC(=O)c2cccs2)c1)c1ccc([N+](=O)[O-])o1`, for which the pIC50 is 5.10, the concentration for an effect of 90% (IC90) was determined as 14.3 µM and the CC50 was 13.8 µM.

For `CN1CCN(c2oc(COc3ccc(-c4ccccc4)cc3)nc2C#N)CC1`, the negative logarithm of the IC50 (pIC50) is 4.81, the IC90 came out at 28.7 µM and the CC50 is more than 40 µM.

On to `CCOc1c2c(nc3ccc(Cl)cc13)CCC2`, for which the negative-log IC50 (pIC50) was 5.29, the IC90 worked out at 21.4 µM and the CC50 was more than 40 µM.

For the compound `COC(=O)[C@H](NC(=O)c1cc(-c2ccccc2)nc2ccccc12)c1ccccc1`, the negative-log IC50 (pIC50) was 5.77 and the IC90 was 3.37 µM.

Regarding `CCOC(=O)Cn1c(-c2ccccc2)ccc(C#N)c1=O`, the negative-log IC50 (pIC50) is 5.40 and the concentration for an effect of 90% (IC90) is more than 100 µM.

As to `Nc1nc(-c2ccccn2)nc(N)c1Cc1c(F)cccc1Cl`, the pIC50 is more than 6.41, the IC90 came out at 0.451 µM and the CC50 was 4.76 µM.

With `CN1CCN(c2ccc(C(=O)c3cn(-c4ccc(F)c(Cl)c4)nn3)cc2)CC1`, the pIC50 was 5.46, the IC90 was more than 100 µM and the CC50 came to 9.78 µM.

In the case of `Cc1ccc(S(=O)(=O)CCc2nnc(NC(=O)c3ccccn3)s2)cc1`, the 50% cytotoxic concentration (CC50) worked out at 38 µM.

For the compound `O=C1Nc2ccccc2/C1=C/C(=O)c1cccs1`, the negative logarithm of the IC50 (pIC50) was 5.36, the 90% effect concentration (IC90) was found to be 26.1 µM and the CC50 turned out to be 33.7 µM.

With `O=[N+]([O-])c1ccc(/C=N/n2c(CO)nc3ccccc32)s1`, the pIC50 is 6.28, the IC90 turned out to be 1.1 µM and the half-maximal cytotoxic concentration (CC50) is more than 40 µM.

Turning to `CCOC(=O)c1ccc(N/C=C/C(=O)C(C)(C)C)cc1`, the negative-log IC50 (pIC50) was 5.34 and the IC90 is more than 100 µM.

For the compound `Clc1ccc(COC(Cn2ccnc2)c2ccc(Cl)cc2Cl)cc1` (stereo not drawn), the pIC50 was 5.43, the IC90 is 5.68 µM and the CC50 is 33.1 µM.

Turning to `O=C(c1nnsc1S(=O)c1ccc(Cl)cc1)N1CCOCC1` (stereo not drawn), the pIC50 is 5.05, the IC90 worked out at 10.8 µM and the cytotoxic concentration (CC50) was determined as 14.4 µM.

`Nc1ccc2cc(Br)ccc2c1`: the pIC50 was 6.20 and the IC90 was more than 100 µM.

`Cc1nc2ccccc2n1/N=C/c1ccc([N+](=O)[O-])s1`: the pIC50 was more than 6.71, the 90% effect concentration (IC90) was less than 0.195 µM and the CC50 worked out at 5.49 µM.

For the compound `CCOC(=O)C(Nc1ccc2ccccc2c1)C(=O)OCC`, the pIC50 was 5.98, the concentration for an effect of 90% (IC90) came to 2.86 µM and the 50% cytotoxic concentration (CC50) is more than 40 µM.

On to `O=C(CNC(=O)/C(=C/c1ccccc1)NC(=O)c1ccc(Br)cc1)OCc1ccccc1`, for which the pIC50 is 5.39, the IC90 turned out to be 6.63 µM and the half-maximal cytotoxic concentration (CC50) is 15.3 µM.

`COc1ccc(C2CC(=O)N3CN(c4ccc(C)c(Cl)c4)CSC3=C2C#N)cc1OC` (stereo not drawn) showed an IC90 of more than 100 µM.

As for `CNC(=O)c1nnsc1S(=O)(=O)c1ccc(Cl)cc1`, the negative-log IC50 (pIC50) was 4.67, the IC90 amounted to 22.2 µM and the cytotoxic concentration (CC50) was 8.55 µM.

Regarding `CCc1ccc(/C=c2\s/c(=C\C(=O)C(C)(C)C)[nH]c2=O)cc1`, the negative-log IC50 (pIC50) was 5.59, the IC90 amounted to 3.56 µM and the CC50 was more than 40 µM.

`CCOC(=O)C(C(=O)OCC)C1N=C(N)N=C2Oc3ccccc3N21` (stereo not drawn): the pIC50 is 4.77 and the concentration for an effect of 90% (IC90) is 36.7 µM.

Regarding `Cc1cccc(OCCCCCn2ccnc2)c1C`, the pIC50 was 4.98, the 90% effect concentration (IC90) worked out at 11.6 µM and the cytotoxic concentration (CC50) is more than 40 µM.

For `COc1ccc(CNC[C@@H](CCCCN(C)Cc2ccc(OC)cc2)N2C[C@H](c3ccccc3)N(CCc3ccc(Cl)c(Cl)c3)C(=O)C2=O)cc1`, the pIC50 is 4.91, the concentration for an effect of 90% (IC90) is 19.2 µM and the cytotoxic concentration (CC50) turned out to be 11.5 µM.

With `Cc1ccc(Nc2ccccc2N)cc1`, the negative-log IC50 (pIC50) was 5.84 and the IC90 was 1.66 µM.

For `COc1ccc(C2/C=C\CN(C(=O)Nc3ccc(C(F)(F)F)cc3)CC(=O)N2Cc2ccc(F)cc2)cc1` (stereo not drawn), the pIC50 is 5.24, the concentration for an effect of 90% (IC90) is 6.73 µM and the CC50 stood at 16.7 µM.

On to `CC(C)c1ccc(NC(=O)NC2CCCCC2)cc1`, for which the pIC50 is 5.20 and the IC90 is more than 100 µM.

Consider `Nc1ccc2ncccc2c1`, for which the negative-log IC50 (pIC50) was 4.42 and the 90% effect concentration (IC90) is more than 100 µM.

As for `O=C(Nc1nnc(-c2ccc(Cl)cc2)o1)C1CCCCC1`, the negative logarithm of the IC50 (pIC50) is 5.48, the IC90 is more than 100 µM and the CC50 was more than 40 µM.

`O=[N+]([O-])c1ccc(O)c(C=Nc2ccc3oc(Cc4ccc(Cl)cc4)nc3c2)c1`: the pIC50 was 4.58 and the concentration for an effect of 90% (IC90) was more than 100 µM.

As for `Cc1[nH]n(C2=NCCS2)c(=O)c1N=Nc1cccc(C(F)(F)F)c1`, the pIC50 was 6.41, the concentration for an effect of 90% (IC90) was determined as 1.47 µM and the CC50 amounted to 9.46 µM.

Turning to `CCCCCCCCn1c2c(c(=N)c3ccccc31)CCC2`, the negative logarithm of the IC50 (pIC50) is 5.20, the IC90 came out at 9.17 µM and the CC50 came out at 9.55 µM.

On to `Cc1cc(N2CCC(C)CC2)nc(-n2nc(C)cc2C)n1`, for which the negative-log IC50 (pIC50) was 5.50, the IC90 is more than 100 µM and the CC50 amounted to 16.5 µM.

`COc1ccc(N)cc1-n1cnnn1`: the IC90 is more than 100 µM.

On to `Cc1ccc(-n2nnnc2SC(C)C(=O)Nc2ccc(Cl)cn2)cc1` (stereo not drawn), for which the negative logarithm of the IC50 (pIC50) was 4.78, the concentration for an effect of 90% (IC90) came out at 29.1 µM and the CC50 came to 26.7 µM.

In the case of `CCOC(=O)COc1ccc(-c2nnc(-c3ccccc3)o2)cc1`, the pIC50 was 6.39 and the concentration for an effect of 90% (IC90) was found to be 3.76 µM.

As to `CCc1ccc(-c2cc(C(F)(F)F)n3nc(C(=O)Nc4c(C)nn(Cc5ccc(F)cc5)c4C)cc3n2)s1`, the pIC50 is 4.79, the IC90 is more than 100 µM and the half-maximal cytotoxic concentration (CC50) was more than 40 µM.

Regarding `CCCCn1c(O)c(C(=O)/C=C/c2ccc3c(c2)OCO3)c(=O)[nH]c1=O`, the pIC50 was 5.34, the concentration for an effect of 90% (IC90) stood at 7.66 µM and the CC50 is more than 40 µM.

Consider `O=c1nc(/C=C/c2ccc(-c3ccc(F)cc3)o2)cc(C(F)(F)F)[nH]1`, for which the negative-log IC50 (pIC50) is 4.98, the IC90 was more than 100 µM and the half-maximal cytotoxic concentration (CC50) was more than 40 µM.

In the case of `Cc1cc(NC(=O)c2ccccc2)n(-c2nc3ccccc3[nH]2)n1`, the negative logarithm of the IC50 (pIC50) is 4.22, the IC90 was more than 100 µM and the cytotoxic concentration (CC50) was found to be 27.9 µM.

`COc1ccc(-c2csc(NC(C)c3nc4cc(Cl)c(N5CCCCC5)cc4n3CCOCCO)n2)cc1` (stereo not drawn): the pIC50 was 5.11, the IC90 was more than 100 µM and the CC50 was more than 40 µM.

On to `O=C(NC1CCCCCCC1)c1ccccc1-c1ccccc1`, for which the negative-log IC50 (pIC50) is 4.24 and the concentration for an effect of 90% (IC90) was more than 100 µM.

With `O=[N+]([O-])c1cc(CN2CCN(c3cccc(C(F)(F)F)c3)CC2)c2cccnc2c1O`, the negative-log IC50 (pIC50) is 4.88, the IC90 was more than 100 µM and the half-maximal cytotoxic concentration (CC50) was 1.49 µM.

`CCCc1nn(C)c(C(=O)Nc2ccc(CC)cc2)c1Cl` yielded a 90% effect concentration (IC90) of more than 100 µM.

For the compound `CCOC(=O)COc1ccc2c(=O)c(-c3ccccc3)coc2c1`, the pIC50 is more than 6.71 and the IC90 was determined as 0.755 µM.

In the case of `COc1ccc(CCNc2nc(N3CCCCC3)nc(N3CCCCC3)n2)cc1OC`, the negative-log IC50 (pIC50) is 4.91, the 90% effect concentration (IC90) came out at 18.8 µM and the CC50 was more than 40 µM.

With `CCC(=O)Nc1nc2ccccc2n1Cc1ccc(Cl)cc1`, the pIC50 was more than 6.71, the 90% effect concentration (IC90) is more than 100 µM and the CC50 is more than 40 µM.

On to `COc1ccc(Oc2ccc(N/C=C/C(=O)C(C)(C)C)cc2)cc1`, for which the pIC50 was 4.12 and the IC90 was more than 100 µM.

In the case of `CCOC(=O)c1ccc(N2C(=O)c3n[nH]c(-c4ccco4)c3C2c2ccc([N+](=O)[O-])cc2)cc1` (stereo not drawn), the pIC50 is 5.04, the IC90 came out at 17 µM and the CC50 is 28 µM.

The compound `CC(C)C(=O)N1CCN(c2ccc(NC(=O)c3ccc4c(c3)OCCO4)cc2Cl)CC1` came in with an IC90 of more than 100 µM and a cytotoxic concentration (CC50) of 19.8 µM.

`COc1ccc(NC(=O)c2ccc(-c3ccc([N+](=O)[O-])cc3)o2)cc1` yielded an IC90 of more than 100 µM.

On to `OC1(C#Cc2c(-c3ccsc3)oc3ccc(N4CCOCC4)cc23)CCCCC1`, for which the pIC50 is 4.82, the 90% effect concentration (IC90) was more than 100 µM and the CC50 is more than 40 µM.

For the compound `CC(=O)C1=C(C)NC(SCC(=O)c2ccc(F)cc2)=C(C#N)C1c1ccco1` (stereo not drawn), the negative logarithm of the IC50 (pIC50) was 4.93, the IC90 is 21.1 µM and the cytotoxic concentration (CC50) is more than 40 µM.

On to `Cc1cc(C(=O)c2ccc(C(C)(C)C)cc2)c(NC(=O)CCl)s1`, for which the pIC50 is 4.71, the IC90 was more than 100 µM and the cytotoxic concentration (CC50) was 27.2 µM.

Turning to `CCOC(=O)CN(C#N)c1nc(N(C)C)nc(N(C)C)n1`, the pIC50 is 5.03 and the IC90 turned out to be 11.7 µM.

Regarding `CCCCCCCn1c(NC(=O)CC)nc2ccccc21`, the pIC50 was more than 6.71, the concentration for an effect of 90% (IC90) came out at 1.58 µM and the CC50 was found to be 29.2 µM.

For `CC1(C)C2CCC1(C)C(NC(=O)/C=C/c1ccccc1)C2` (stereo not drawn), the pIC50 is more than 6.71, the concentration for an effect of 90% (IC90) was 18.1 µM and the CC50 was more than 40 µM.

Take `Nc1cc2nc3ccccc3oc-2cc1=O`: the pIC50 is 6.43, the IC90 was found to be 0.916 µM and the CC50 was more than 40 µM.

Regarding `COc1cnc(-c2ccccn2)nc1Oc1c(C)cccc1C`, the pIC50 was 5.29, the IC90 is 14.7 µM and the CC50 was determined as 19.8 µM.

Regarding `CCn1c([N+](=O)[O-])nc2c1c(=O)[nH]c(=O)n2C`, the negative-log IC50 (pIC50) was 6.08, the IC90 was 1.64 µM and the cytotoxic concentration (CC50) turned out to be 11.6 µM.

`O=C(CSc1nnc(NC(=O)c2ccccc2Cl)s1)Nc1ccc2c(c1)oc1ccccc12`: the cytotoxic concentration (CC50) is more than 40 µM.

`CC1CC1C(=O)Nc1ccc(-c2ccccc2)cc1` (stereo not drawn): the negative-log IC50 (pIC50) was 6.51 and the 90% effect concentration (IC90) was more than 100 µM.

For `CC(=O)Nc1cccc(C(=O)/C=C/c2ccc(Br)cc2)c1`, the negative-log IC50 (pIC50) is 5.19, the IC90 turned out to be 9.82 µM and the CC50 is 10.7 µM.

With `O=C(/C=C/c1ccccc1)/C=C/c1ccccc1`, the pIC50 was 5.23, the 90% effect concentration (IC90) came out at 6.68 µM and the CC50 was found to be 31.2 µM.
